According to patent US7074190B2, “Non-invasive apparatus system for monitoring drug hepatoxicity and uses thereof” (priority 2002, dated 2006):

Test system: adult dogs
Assay: Artery blood pressure waveform analysis before and after taking the drug, dog experiment
Assay type: in vivo
[1] = Code A dog, 500 mg/kg oral, before and after taking the drug (12 hours)
[2] = Code B dog, 1,200 mg/kg subcutaneous injection, 12 hours after taking the drug
[3] = Code B dog, 1,200 mg/kg subcutaneous injection, before and after taking the drug (12 hours)

Protocol: Two adult dogs weighing 12 and 15 kg were used. One (coded A) of them received 500 mg/kg of body weight of acetaminophen oral solution (dissolved in water); and the other one (coded B) received a higher concentration (1,200 mg/kg of body weight) of acetaminophen via subcutaneous injection. After Nembutal was injected and the respirator was put on, the hair on the front legs of the dogs was shaved and a blood pressure waveform sensor was inserted by operation. The waveform of artery blood pressure waveform on brachial position was continuously recorded and analyzed by a computer with a frequency of 100 data per minute. After surgery and before the drug was orally taken or injected, the blood pressure waveform of each dog was measured for two hours as the baseline. After the drug was orally taken or injected, the blood pressure waveform was continuously monitored for analyzing the hepatotoxicity induced by the drug, and blood samples were periodically taken from a tube inserted into the artery for determining the level of hepatotoxicuty.
The definition of parameter altered amount is: (the parameter value after taking the drug—the parameter value before taking the drug)/the parameter value before taking the drug *100%

For `CC(=O)Nc1ccc(O)cc1` [acetaminophen], the “Time parameter Altered Amount T3 = cd” value [1] was “T3 = cd = −20.0 second”, the “Time parameter Altered Amount T4 = de” value [1] was “T4 = de = 23.5 second” and the “Time parameter Altered Amount T5 = ae” value [1] was “T5 = ae = 7.9 second”. The “Time parameter Altered amount T1 = ab” value [1] was “T1 = ab = −16.7 second”, the “oblique angle parameter Altered amount D1 = (Bb-Aa)/ab” value [1] was “D1 = (Bb-Aa)/ab = 22.7 mmHg/sec” and the “oblique angle parameter Altered amount D2 = (Bb-Cc)/bc” value [1] was “D2 = (Bb-Cc)/bc = −10.2 mmHg/sec”. The “oblique angle parameter Altered amount D3 = (Dd-Cc)/cd” value [1] was “D3 = (Dd-Cc)/cd = 40.0 mmHg/sec”, the “oblique angle parameter Altered amount D4 = (Dd-Ee)/de” value [1] was “D4 = (Dd-Ee)/de = −8.3 mmHg/sec” and the “oblique angle parameter Altered amount D5 = D1 + D2” value [1] was “D5 = D1 + D2 = 11.4 mmHg/sec”. The “oblique angle parameter Altered amount D6 = D3 + D4” value [1] was “D6 = D3 + D4 = 26.2 mmHg/sec”, the “highest altered amount (oblique angle parameter)” value (Code A dog, 500 mg/kg oral, before vs 12 hours after taking the drug, all other parameters lower) was 40% and the “difference between the blood pressure waveforms before and after taking the drug” value (Code A dog, 500 mg/kg oral, before vs after taking the drug for 12 hours (FIG. 5 vs FIG. 6)) was “no significant difference”. The “Oblique angle parameter D1 = (Bb-Aa)/ab” value [2] was “D1 = (Bb-Aa)/ab = 2250 mmHg/sec”, the “Oblique angle parameter D2 = (Bb-Ee)/be” value [2] was “D2 = (Bb-Ee)/be = 1383 mmHg/sec” and the “Oblique angle parameter D3 = (Ff-Ee)/ef” value [2] was “D3 = (Ff-Ee)/ef = 420 mmHg/sec”. The “Oblique angle parameter D4 = (Ff-Gg)/fg” value [2] was “D4 = (Ff-Gg)/fg = 311 mmHg/sec”, the “Oblique angle parameter D5 = D1 + D2” value [2] was “D5 = D1 + D2 = 3633 mmHg/sec” and the “Oblique angle parameter D6 = D3 + D4” value [2] was “D6 = D3 + D4 = 731 mmHg/sec”. For the same compound, the “Pressure parameter P1 = Aa” value [2] was “P1 = Aa = 16 mmHg”, the “Pressure parameter P2 = Bb” value [2] was “P2 = Bb = 106 mmHg” and the “Pressure parameter P3 = Ee” value [2] was “P3 = Ee = 23 mmHg”. The “Pressure parameter P4 = Ff” value [2] was “P4 = Ff = 44 mmHg”, the “Pressure parameter P5 = Gg” value [2] was “P5 = Gg = 16 mmHg” and the “Ratio parameter RA1 = A6/A5” value [2] was “RA1 = A6/A5 = 0.87”. The “Ratio parameter RA2 = A5/A7” value [2] was “RA2 = A5/A7 = 0.53”, the “Ratio parameter RA3 = A6/A7” value [2] was “RA3 = A6/A7 = 0.47” and the “Ratio parameter RP1 = Ff/Bb” value [2] was “RP1 = Ff/Bb = 0.42”. The “Ratio parameter RT1 = ab/ag” value [2] was “RT1 = ab/ag = 0.17”, the “Ratio parameter RT2 = ae/ag” value [2] was “RT2 = ae/ag = 0.42” and the “Ratio parameter RT3 = af/ag” value [2] was “RT3 = af/ag = 0.63”. For the same compound, the “Superficial measure parameter A1 = AabB” value [2] was “A1 = AabB = 2.44 sec. * mmHg”, the “Superficial measure parameter A2 = BbeE” value [2] was “A2 = BbeE = 2.58 sec. * mmHg” and the “Superficial measure parameter A3 = EefF” value [2] was “A3 = EefF = 1.68 sec. * mmHg”. The “Superficial measure parameter A4 = FfgG” value [2] was “A4 = FfgG = 2.70 sec. * mmHg”, the “Superficial measure parameter A5 = A1 + A2” value [2] was “A5 = A1 + A2 = 5.02 sec. * mmHg” and the “Superficial measure parameter A6 = A3 + A4” value [2] was “A6 = A3 + A4 = 4.38 sec. * mmHg”. For the same compound, the “Superficial measure parameter A7 = A5 + A6” value [2] was “A7 = A5 + A6 = 9.40 sec. * mmHg”, the “Time parameter T1 = ab” value [2] was “T1 = ab = 0.04 second” and the “Time parameter T2 = be” value [2] was “T2 = be = 0.06 second”. For the same compound, the “Time parameter T3 = ef” value [2] was “T3 = ef = 0.05 second”, the “Time parameter T4 = fg” value [2] was “T4 = fg = 0.09 second” and the “Time parameter T5 = ag” value [2] was “T5 = ag = 0.24 second”. For the same compound, the “number of parameter altered amounts exceeding 100%” value (Code B dog, 1,200 mg/kg subcutaneous injection, TABLE 8) was “six”, the “Oblique angle parameter Altered amount D2 = (Bb-Ee)/be” value [3] was “D2 = (Bb-Ee)/be = 349%” and the “Oblique angle parameter Altered amount D3 = (Ff-Ee)/ef” value [3] was “D3 = (Ff-Ee)/ef = 23%”. For the same compound, the “Oblique angle parameter Altered amount D4 = (Ff-Gg)/fg” value [3] was “D4 = (Ff-Gg)/fg = 677%”, the “Pressure parameter Altered amount P1 = Aa” value [3] was “P1 = Aa = −85%” and the “Pressure parameter Altered amount P2 = Bb” value [3] was “P2 = Bb = −25%”. The “Pressure parameter Altered amount P3 = Ee” value [3] was “P3 = Ee = −79%”, the “Pressure parameter Altered amount P4 = Ff” value [3] was “P4 = Ff = −65%” and the “Pressure parameter Altered amount P5 = Gg” value [3] was “P5 = Gg = −85%”. For the same compound, the “Ratio parameter Altered amount RA1 = A6/A5” value [3] was “RA1 = A6/A5 = 123%”, the “Ratio parameter Altered amount RA2 = A5/A7” value [3] was “RA2 = A5/A7 = 89%” and the “Ratio parameter Altered amount RA3 = A6/A7” value [3] was “RA3 = A6/A7 = −35%”. The “Ratio parameter Altered amount RP1 = Ff/Bb” value [3] was “RP1 = Ff/Bb = −51%”, the “Ratio parameter Altered amount RT1 = ab/ag” value [3] was “RT1 = ab/ag = 143%” and the “Ratio parameter Altered amount RT2 = ae/ag” value [3] was “RT2 = ae/ag = 55%”. For the same compound, the “Ratio parameter Altered amount RT3 = af/ag” value [3] was “RT3 = af/ag = 85%”, the “Superficial measure parameter Altered amount A1 = AabB” value [3] was “A1 = AabB = −62%” and the “Superficial measure parameter Altered amount A2 = BbeE” value [3] was “A2 = BbeE = −85%”. For the same compound, the “Superficial measure parameter Altered amount A3 = EefF” value [3] was “A3 = EefF = −72%”, the “Superficial measure parameter Altered amount A4 = FfgG” value [3] was “A4 = FfgG = −95%” and the “Superficial measure parameter Altered amount A5 = A1 + A2” value [3] was “A5 = A1 + A2 = −47%”. The “Superficial measure parameter Altered amount A6 = A3 + A4” value [3] was “A6 = A3 + A4 = −61%”, the “Superficial measure parameter Altered amount A7 = A5 + A6” value [3] was “A7 = A5 + A6 = −84%” and the “Time parameter Altered amount T1 = ab” value [3] was “T1 = ab = −20%”. The “Time parameter Altered amount T2 = be” value [3] was “T2 = be = −54%”, the “Time parameter Altered amount T3 = ef” value [3] was “T3 = ef = 0%” and the “Time parameter Altered amount T4 = fg” value [3] was “T4 = fg = −80%”. For the same compound, the “Time parameter Altered amount T5 = ag” value [3] was “T5 = ag = −64%”, the “oblique angle parameter Altered amount D1 = (Bb-Aa)/ab” value [3] was “D1 = (Bb-Aa)/ab = 162%” and the “oblique angle parameter Altered amount D5 = D1 + D2” value [3] was “D5 = D1 + D2 = 211%”. For the same compound, the “oblique angle parameter Altered amount D6 = D3 + D4” value [3] was “D6 = D3 + D4 = 92%”.
